The source made the active and inactive calls. The rule behind the calls is not given here.
Columns and labels:
Rattus norvegicus [1] = test: Anti-hepatic fibrosis activity in bile duct ligation rat model assessed as reduction in serum TBA level at 100 mg/kg, po administered for 14 days; assay type: functional; conditions: time 14 day
Rattus norvegicus [2] = test: Anti-hepatic fibrosis activity in bile duct ligation rat model assessed as reduction in serum TBiL level in serum at 100 mg/kg, po administered for 14 days; assay type: functional; conditions: time 14 day
HSC-T6 [3] = test: Anti-fibrosis effect in HSC-T6 cells assessed as reduction in TGFbeta1-induced MMP-2 protein expression measured for 24 hrs; assay type: functional, cell-based; conditions: Rattus norvegicus, dose 2.5-20 µM
Rattus norvegicus [4] = test: Anti-hepatic fibrosis activity in bile duct ligation rat model assessed as reduction hydroxyproline level at 100 mg/kg, po administered for 14 days; assay type: functional, organism-based; conditions: time 14.0 day
Rattus norvegicus [5] = test: Anti-hepatic fibrosis activity in bile duct ligation rat model assessed as reduction in MMP2 protein expression at 100 mg/kg, po administered for 14 days by Western blot analysis; assay type: functional, organism-based; conditions: time 14.0 day
LX-2 [6] = test: Anti-fibrosis effect in human LX2 cells assessed as reduction in TGFbeta1-induced alpha-SMA mRNA expression at 10 to 20 uM measured for 24 hrs; assay type: functional, cell-based; conditions: dose 10-20 µM
Mus musculus [7] = test: Anti-hepatic fibrosis activity in MDR2 knockout liver injury mouse model assessed as reduction in serum TBA level at 100 mg/kg, po administered once a day for 4 weeks (reference value: 59.04+/-22.38 micromol/L); assay type: functional
Rattus norvegicus [8] = test: Anti-hepatic fibrosis activity in bile duct ligation rat model assessed as reduction inflammation score at 100 mg/kg, po administered for 14 days; assay type: functional, organism-based; conditions: time 14.0 day
Mus musculus [9] = test: Anti-hepatic fibrosis activity in MDR2 knockout liver injury mouse model assessed as reduction in CTGF mRNA expression at 100 mg/kg, po administered once a day for 4 weeks by qRT-PCR analysis; assay type: functional, organism-based
LX-2 [10] = test: Anti-hepatic fibrosis activity in human LX2 cells assessed as inhibition of TGFbeta1-induced MMP-2 protein expression at 20 uM incubated for 24 hrs by western blot analysis; assay type: functional, cell-based
Mus musculus [11] = test: Anti-hepatic fibrosis activity in MDR2 knockout liver injury mouse model assessed as reduction in COL1A1 mRNA expression at 100 mg/kg, po administered once a day for 4 weeks by qRT-PCR analysis; assay type: functional, organism-based
Mus musculus [12] = test: Anti-hepatic fibrosis activity in MDR2 knockout liver injury mouse model assessed as reduction in CTGF protein expression at 100 mg/kg, po administered once a day for 4 weeks by Western blot analysis; assay type: functional, organism-based
Mus musculus [13] = test: Anti-hepatic fibrosis activity in MDR2 knockout liver injury mouse model assessed as reduction in TIMP1 mRNA expression at 100 mg/kg, po administered once a day for 4 weeks by qRT-PCR analysis; assay type: functional, organism-based
LX-2 [14] = test: Anti-fibrosis effect in human LX2 cells assessed as reduction in TGFbeta1-induced integrin subunit alpha-V protein expression at 10 to 20 uM measured for 24 hrs; assay type: functional, cell-based; conditions: dose 10-20 µM
Rattus norvegicus [15] = test: Anti-hepatic fibrosis activity in bile duct ligation rat model assessed as reduction in TGFB1 mRNA expression at 100 mg/kg, po administered for 14 days by qRT-PCR analysis; assay type: functional, organism-based; conditions: time 14.0 day
LX-2 [16] = test: Effect on EWSR1 expression in human LX2 cells at 2.5 to 20 uM; assay type: functional, cell-based; conditions: dose 2.5-20 µM
HSC-T6 [17] = test: Anti-fibrosis effect in HSC-T6 cells assessed as reduction in TGFbeta1-induced integrin subunit alpha-V protein expression measured for 24 hrs; assay type: functional, cell-based; conditions: Rattus norvegicus, dose 2.5-20 µM
LX-2 [18] = test: Anti-fibrosis effect in human LX2 cells assessed as reduction in TGFbeta1-induced fibronectin protein expression at 10 to 20 uM measured for 24 hrs; assay type: functional, cell-based; conditions: dose 10-20 µM
Rattus norvegicus [19] = test: Anti-hepatic fibrosis activity in bile duct ligation rat model assessed as reduction in TGFB1 protein expression at 100 mg/kg, po administered for 14 days by Western blot analysis; assay type: functional, organism-based; conditions: time 14.0 day
Rattus norvegicus [20] = test: Anti-hepatic fibrosis activity in bile duct ligation rat model assessed as reduction in MMP2 mRNA expression at 100 mg/kg, po administered for 14 days by qRT-PCR analysis; assay type: functional, organism-based; conditions: time 14.0 day
Mus musculus [21] = test: Anti-hepatic fibrosis activity in MDR2 knockout liver injury mouse model assessed as reduction in ALT level at 100 mg/kg, po administered once a day for 4 weeks (reference value: 397+/-123.30 U/L); assay type: functional
LX-2 [22] = test: Downregulation of EWSR1 mRNA level in human LX2 cells; assay type: functional, cell-based
LX-2 [23] = test: Anti-hepatic fibrosis activity in human LX2 cells assessed as inhibition of TGF-beta1 induced alpha-SMA mRNA expression at 20 uM incubated for 24 hrs by qRT-PCR analysis; assay type: functional, cell-based
Rattus norvegicus [24] = test: Anti-hepatic fibrosis activity in bile duct ligation rat model assessed as reduction in bile duct hyperplasia at 100 mg/kg, po administered for 14 days by hematoxylin and eosin staining based analysis; assay type: functional, organism-based; conditions: time 14.0 day
LX-2 [25] = test: Anti-fibrosis effect in human LX2 cells assessed as reduction in TGFbeta1-induced alpha-SMA protein expression at 10 to 20 uM measured for 24 hrs; assay type: functional, cell-based; conditions: dose 10-20 µM
Mus musculus [26] = test: Anti-hepatic fibrosis activity in MDR2 knockout liver injury mouse model assessed as reduction in MMP2 protein expression at 100 mg/kg, po administered once a day for 4 weeks by Western blot analysis; assay type: functional, organism-based

## CCCC[C@@H]1[C@H]2CCCN3CCC[C@@H](CN1C(=O)Nc1c(CC)cccc1CC)[C@@H]23
Rattus norvegicus [1]
  Activity: 173 µmol/L
Rattus norvegicus [2]
  Activity: 92.48 µmol/L
HSC-T6 [3]
  Activity: Dose-Dependent Effect
Rattus norvegicus [4]
  Activity: Active
Rattus norvegicus [5]
  Activity: Active
LX-2 [6]
  Activity: Active
Mus musculus [7]
  Activity: 29.18 µmol/L
Rattus norvegicus [8]
  Activity: Active
Mus musculus [9]
  Activity: Active
LX-2 [10]
  Activity: Active
Mus musculus [11]
  Activity: Active
Mus musculus [12]
  Activity: Active
Mus musculus [13]
  Activity: Active
LX-2 [14]
  Activity: Active
Rattus norvegicus [15]
  Activity: Active
LX-2 [16]
  Activity: inactive
HSC-T6 [17]
  Activity: Dose-Dependent Effect
LX-2 [18]
  Activity: Active
Rattus norvegicus [19]
  Activity: Active
Rattus norvegicus [20]
  Activity: Active
Mus musculus [21]
  Activity: 295.2 U/L
LX-2 [22]
  Activity: inactive
LX-2 [23]
  Activity: Active
Rattus norvegicus [24]
  Activity: Active
LX-2 [25]
  Activity: Active
Mus musculus [26]
  Activity: Active

From ChEMBL document CHEMBL5338827, “Evolution and Discovery of Matrine Derivatives as a New Class of Anti-Hepatic Fibrosis Agents Targeting Ewing Sarcoma Breakpoint Region 1 (EWSR1)” (J Med Chem, 2023)
